In PubChem BioAssay (NCI) one finds TGI and GI50 data, which are given here for 20 molecules.

Each structure is given as a SMILES string.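 Cultured in 96-well plates, cells were exposed to test compound for 48 hours across five concentrations. GI50 marks 50% less growth. The concentration for full growth arrest is given as TGI.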

The test system of one experiment is K-562 leukemia. Nature of the experiment: DTP human tumour cell line panel, 48 h.
`CCOC(=O)c1cc2nc3ccccc3c(=O)n2c2ccccc12`: the TGI (commonly the concentration at which net growth stops) was above 10 µM.
In turn, `COc1cc2c(c(OC)c1OC)-c1ccc(OC)c(=O)cc1C(NC(=O)c1ccc(N=[N+]=[N-])cc1)CC2` (stereo unspecified) yielded a TGI above 39.2 µM.
For the molecule `CCN1CCN(c2nc(C)cc(N(CCNc3ccnc4cc(Cl)ccc34)Cc3ccc4c(c3)OCO4)n2)CC1`, the GI50 (commonly the concentration giving 50% growth inhibition) is 0.913 µM and the concentration for total growth inhibition (TGI) is 2.76 µM.
The molecule `COc1c(Cl)c(=O)oc2ccc(Cl)cc12` yielded a TGI above 100 µM.
On to `Cc1cc(I)cc(CN(C)CCCN2CCCCC2)c1O`, for which the GI50 is 11.1 µM and the concentration for total growth inhibition (TGI) is 23.1 µM.
`COc1cc(NCc2ccc3oc(=O)c(-c4ccccc4)nc3c2)cc(OC)c1OC` yielded a total growth inhibition concentration (TGI) above 10 µM.
On to `CN(C(=O)c1ccc(C(F)(F)F)cc1)c1ccc(Oc2ccc3c(c2)cc(C(=O)N2CCN(Cc4ccc(OC(F)F)cc4)CC2)n3C)nc1`, for which the GI50 was below 0.01 µM and the TGI is above 100 µM.
As for `Cc1ccccc1S(=O)(=O)OC1NS(=O)(=O)c2ccccc21` (stereo unspecified), the TGI is above 100 µM.
As for `Nc1ncnc2n[nH]c(Nc3ccc(F)cc3)c12`, the GI50 is 15.6 µM and the concentration for total growth inhibition (TGI) is above 100 µM.
The corresponding values for `CCN(CC)c1ccc(-c2cc(-c3cc(OC)c(OC)c(OC)c3)nc(N3CCOCC3)c2C#N)cc1` are 1 µM and above 19.9 µM.
With `CC(=O)OC1=CC(n2cc(F)c(=O)[nH]c2=O)OC(C)C1=O` (stereo unspecified), the TGI is above 100 µM.
As for `NC1(C(=O)OCc2ccccc2)CCCC1`, the TGI was determined as 59.6 µM. That is a double-digit micromolar value.
With `Cn1cnc([N+](=O)[O-])c1S(=O)(=O)Oc1cccc2ccccc12`, the GI50 was 1.6 µM and the concentration for total growth inhibition (TGI) amounted to 8.63 µM.
The corresponding values for `Fc1cc2[nH]ncc2c2c3c(c(-c4cn[nH]c4)nc12)CCCC3` are 1.55 µM and above 100 µM.
`COc1cc(OC)cc(-c2cc(=O)c3c(OC)c(OC)c(OC)c(OC)c3o2)c1` showed a TGI above 100 µM.
On the same count and under the same terms, to `C=C(Br)C(C)(Br)CCC(Br)C(C)(C)Cl` (stereo unspecified) belongs above 47.5 µM.
The same measure, in the same setting: to `CSc1nc(NC2OCC(OC(C)=O)C(OC(C)=O)C2OC(C)=O)c(N=CC=Nc2c(NC3OCC(OC(C)=O)C(OC(C)=O)C3OC(C)=O)nc(SC)[nH]c2=O)c(=O)[nH]1` (stereo unspecified) belongs above 100 µM.
Regarding `COc1ccc(-c2nnc(COc3ccc(NC(=O)Nc4cc(C(F)(F)F)cc(C(F)(F)F)c4)cc3F)o2)cc1`, the GI50 was 2.66 µM and the TGI was found to be 13.5 µM.
With `COc1ccc(-c2nnc(COc3ccc(C(=O)/C=C/c4ccco4)cc3)o2)cc1`, the GI50 is 2.77 µM and the concentration for total growth inhibition (TGI) was determined as 7.45 µM.
`CC1(C)C2CCC(=O)C1CC2` (stereo unspecified): the TGI was above 100 µM.

A further experiment deals with SNB-19 CNS. Nature of the experiment: DTP human tumour cell line panel, 48 h.
With `CCOC(=O)c1cc2nc3ccccc3c(=O)n2c2ccccc12`, the TGI was above 10 µM.
Same read-out and setting: to `COc1cc2c(c(OC)c1OC)-c1ccc(OC)c(=O)cc1C(NC(=O)c1ccc(N=[N+]=[N-])cc1)CC2` (stereo unspecified) belongs above 100 µM.
Consider `CCN1CCN(c2nc(C)cc(N(CCNc3ccnc4cc(Cl)ccc34)Cc3ccc4c(c3)OCO4)n2)CC1`, for which the GI50 is 3 µM and the TGI was 10.2 µM.
`COc1c(Cl)c(=O)oc2ccc(Cl)cc12` yielded a TGI above 100 µM.
`Cc1cc(I)cc(CN(C)CCCN2CCCCC2)c1O`: the GI50 was 17.4 µM and the TGI was determined as 40.2 µM.
As to `COc1cc(NCc2ccc3oc(=O)c(-c4ccccc4)nc3c2)cc(OC)c1OC`, the TGI is above 10 µM.
For `CN(C(=O)c1ccc(C(F)(F)F)cc1)c1ccc(Oc2ccc3c(c2)cc(C(=O)N2CCN(Cc4ccc(OC(F)F)cc4)CC2)n3C)nc1`, the GI50 is 34.9 µM and the concentration for total growth inhibition (TGI) was above 100 µM.
Molecule `Cc1ccccc1S(=O)(=O)OC1NS(=O)(=O)c2ccccc21` (stereo unspecified) displayed a total growth inhibition concentration (TGI) above 100 µM.
As for `Nc1ncnc2n[nH]c(Nc3ccc(F)cc3)c12`, the GI50 is 61.7 µM and the total growth inhibition concentration (TGI) was above 100 µM.
The corresponding values for `CCN(CC)c1ccc(-c2cc(-c3cc(OC)c(OC)c(OC)c3)nc(N3CCOCC3)c2C#N)cc1` are 12.8 µM and above 100 µM.
With `CC(=O)OC1=CC(n2cc(F)c(=O)[nH]c2=O)OC(C)C1=O` (stereo unspecified), the total growth inhibition concentration (TGI) was above 100 µM.
Regarding `NC1(C(=O)OCc2ccccc2)CCCC1`, the TGI worked out at 61.1 µM. That is a double-digit micromolar value.
For the molecule `Cn1cnc([N+](=O)[O-])c1S(=O)(=O)Oc1cccc2ccccc12`, the GI50 is 29 µM and the TGI was above 100 µM.
The corresponding values for `Fc1cc2[nH]ncc2c2c3c(c(-c4cn[nH]c4)nc12)CCCC3` are 1.65 µM and 17.1 µM.
As to `COc1cc(OC)cc(-c2cc(=O)c3c(OC)c(OC)c(OC)c(OC)c3o2)c1`, the TGI is above 100 µM.
Same read-out and setting: as for `C=C(Br)C(C)(Br)CCC(Br)C(C)(C)Cl` (stereo unspecified), the figure is 34.4 µM; as for `CSc1nc(NC2OCC(OC(C)=O)C(OC(C)=O)C2OC(C)=O)c(N=CC=Nc2c(NC3OCC(OC(C)=O)C(OC(C)=O)C3OC(C)=O)nc(SC)[nH]c2=O)c(=O)[nH]1` (stereo unspecified), above 85.8 µM.
For `COc1ccc(-c2nnc(COc3ccc(NC(=O)Nc4cc(C(F)(F)F)cc(C(F)(F)F)c4)cc3F)o2)cc1`, the GI50 was 3.33 µM and the concentration for total growth inhibition (TGI) came out at 15.7 µM.
Take `COc1ccc(-c2nnc(COc3ccc(C(=O)/C=C/c4ccco4)cc3)o2)cc1`: the GI50 was 5.56 µM and the TGI worked out at 18.2 µM.
`CC1(C)C2CCC(=O)C1CC2` (stereo unspecified) registered a TGI above 100 µM.

A further experiment has as its system TK-10 renal. Nature of the experiment: DTP human tumour cell line panel, 48 h.
Consider `CCOC(=O)c1cc2nc3ccccc3c(=O)n2c2ccccc12`, for which the concentration for total growth inhibition (TGI) is above 10 µM.
As for `COc1cc2c(c(OC)c1OC)-c1ccc(OC)c(=O)cc1C(NC(=O)c1ccc(N=[N+]=[N-])cc1)CC2` (stereo unspecified), the TGI was above 100 µM.
In the case of `CCN1CCN(c2nc(C)cc(N(CCNc3ccnc4cc(Cl)ccc34)Cc3ccc4c(c3)OCO4)n2)CC1`, the GI50 is 1.66 µM and the concentration for total growth inhibition (TGI) turned out to be 3.16 µM.
In turn, `COc1c(Cl)c(=O)oc2ccc(Cl)cc12` yielded a TGI above 100 µM.
As for `Cc1cc(I)cc(CN(C)CCCN2CCCCC2)c1O`, the GI50 is 19.8 µM and the TGI turned out to be 37.7 µM.
As for `COc1cc(NCc2ccc3oc(=O)c(-c4ccccc4)nc3c2)cc(OC)c1OC`, the TGI is above 10 µM.
`CN(C(=O)c1ccc(C(F)(F)F)cc1)c1ccc(Oc2ccc3c(c2)cc(C(=O)N2CCN(Cc4ccc(OC(F)F)cc4)CC2)n3C)nc1`: the GI50 was 15.7 µM and the TGI is above 96.1 µM.
Take `Cc1ccccc1S(=O)(=O)OC1NS(=O)(=O)c2ccccc21` (stereo unspecified): the concentration for total growth inhibition (TGI) was above 100 µM.
For the molecule `Nc1ncnc2n[nH]c(Nc3ccc(F)cc3)c12`, the GI50 was 25.4 µM and the concentration for total growth inhibition (TGI) is above 100 µM.
